Experimental data as given in patent US7473708B2, “Agents with leukotriene B4-like antiviral (enveloped RNA) activities” (priority 1996, dated 2009).

Key:
EBV [1] = test: Detection of Epstein-Barr Nuclear Antigen (EBNA) in EBV-infected PBMC (ACIF test); assay type: cell-based, human; settings: 100 nM analog, PBMC, six days, EBNA by ACIF
Description: After ten days of culture, cells were harvested for determination of the presence of Epstein-Barr Nuclear Antigen (EBNA), a consequence of EBV infection. Preparation of cell smears, fixation and detection of EBNA by the anti-complement immunofluorescence (ACIF) test were carried out as described by Reedman B. M. and Klein G. (Int. J. Cancer, 1973, 11:499). Smears were prepared by spreading 50 μl of a concentrated suspension of washed cells (2×10^6/ml) on clean slides, air dried and fixed in cold acetone (−20° C.) during 10 minutes. Human serum (50 μl) from EBV seropositive donor was used as a source of complement. Slides were incubated at room temperature in a humid chamber during 45 minutes. Slides were then washed three times in phosphate buffer saline (PBS) and stained with 50 μl of fluorescein-5-isothiocyanate (FITC “Isomer I”)-conjugated goat IgG fraction anti-human complement C3 (Cappel Research Products, Durham, N.C.) during 60 minutes at room temperature in a humid chamber. Slides were washed in PBS (3 times), mounted in PBS:glycerol 1:1 and examined. Raji and U937 cells were used as positive and negative controls, respectively. The percentage of EBNA-positive cells was decreased by more than 55% with 30 nM LTB4, and by more than 70% with 100 nM LTB4 (FIG. 2). The results illustrated in FIG. 2 are representative of six (6) other experiments.
(§1) PBMC were infected with EBV and HSV-1 and treated or not with 100 nM of analogs of LTB4 such as 20-OH-LTB4, LTA3 methyl ester, 12(R)-HETE and 5(S), 15(S)-diHETE. After six days of culture, the presence of EBNA antigen (a consequence of EBV infection) was evaluated by the ACIF test, as described in Example I. Similarly, the presence of HSV-1 antigen in PBMC was evaluated by immunofluorescence using an antiserum obtained from a chronically infected donor as described above in section entitled “Detection of Specific HSV-1 Antigen”. […] The results illustrated in Table 1 are representative of three other experiments.

HSV-1 (strain McIntyre) = test: Detection of specific HSV-1 antigen in HSV-1-infected PBMC (immunofluorescence); assay type: cell-based, human; settings: 100 nM analog, six days, antiserum immunofluorescence
Description: Synthesis of the viral antigen was inhibited by 60% in the presence of 100 nM LTB4 (FIG. 4). The results illustrated in FIG. 4 are representative of five (5) other experiments.
as §1

EBV [2] = settings: in vitro, read-out: IC50, viral replication; cited from earlier work
HSV = settings: in vitro, read-out: IC50, viral replication; cited from earlier work

For `CCCCC/C=C\C[C@@H](O)/C=C/C=C\C/C=C\CCCC(=O)O` [12(R)-HETE, 12(R)-hydroxy-5,8,10,14(Z,Z,E,Z)-eicosatetraenoic acid], the “EBV infection, percentage of inhibition compared to infected PBMC cultured in the absence of analogs” value (EBV [1]) was 65% and the “HSV-1 infection, percentage of inhibition compared to infected PBMC cultured in the absence of analogs” value (HSV-1 (strain McIntyre)) was 70%.

In the case of `O=C(O)CCC[C@H](O)\C=C/C=C/C=C/[C@H](O)C/C=C\CCCCCO` [20-OH-LTB4, 20-hydroxy-LTB4], the “HSV-1 infection, percentage of inhibition compared to infected PBMC cultured in the absence of analogs” value (HSV-1 (strain McIntyre)) is reported as 74%.

In the case of `CCCCC[C@H](O)/C=C/C=C\C/C=C\C=C\[C@@H](O)CCCC(=O)O` [5(S),15(S)-diHETE, 5(S),15(S)-dihydroxy-6,8,11,13-(E,Z,Z,E)-eicosatetrae-noic acid], the “EBV infection, percentage of inhibition compared to infected PBMC cultured in the absence of analogs” value (EBV [1]) is reported as 50%.

In the case of `CCCCCCCC\C=C/C=C/C=C/[C@@H]1O[C@H]1CCCC(=O)OC` [LTA3 methyl ester, 14,15-dihydro-LTA4 methyl ester], the “EBV infection, percentage of inhibition compared to infected PBMC cultured in the absence of analogs” value (EBV [1]) is reported as 65% and the “HSV-1 infection, percentage of inhibition compared to infected PBMC cultured in the absence of analogs” value (HSV-1 (strain McIntyre)) is reported as 60%.

For `Nc1nc(O)c2ncn(COC(CO)CO)c2n1` [ganciclovir], the IC50 (EBV [2]) is listed as 1000 nM and the IC50 (HSV) is listed as 2400 nM.
